# In ChEMBL document CHEMBL1201862, “PubChem BioAssay data set” (2004):
#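 48-hour exposure; five concentrations; linearly interpolated endpoints. Abbreviation: GI50, concentration required for 50% inhibition of growth.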 The source made the active and inactive calls. Cut-off read from the data, not from the text of the source: active = GI50 up to about 1.1 µM and inactive = higher.
# How the values were obtained:
# Assay in all cases: inhibition of tumour cell growth, NCI panel, 48 h
# HCT-15 = system: HCT-15
# NCI-H460 = system: NCI-H460
# NCI-H23 = system: NCI-H23
# CCRF-CEM = system: CCRF-CEM
# HT-29 = system: HT-29
# SNB-19 = system: SNB-19
# RXF 393 = system: RXF 393
# HCT-116 = system: HCT-116
# SK-MEL-5 = system: SK-MEL-5
# NCI-H522 = system: NCI-H522
# OVCAR-3 = system: OVCAR-3
# U-251 = system: U-251
# SF-295 = system: SF-295
# SK-OV-3 = system: SK-OV-3
# SN12C = system: SN12C
# NCI-H226 = system: NCI-H226
# SF-268 = system: SF-268
# SK-MEL-2 = system: SK-MEL-2
# K562 = system: K562
# OVCAR-8 = system: OVCAR-8
Structure (SMILES),GI50 (HCT-15),GI50 (NCI-H460),GI50 (NCI-H23),GI50 (CCRF-CEM),GI50 (HT-29),GI50 (SNB-19),GI50 (RXF 393),GI50 (HCT-116),GI50 (SK-MEL-5),GI50 (NCI-H522),GI50 (OVCAR-3),GI50 (U-251),GI50 (SF-295),GI50 (SK-OV-3),GI50 (SN12C),GI50 (NCI-H226),GI50 (SF-268),GI50 (SK-MEL-2),GI50 (K562),GI50 (OVCAR-8)
CN(C)c1nc(N(C)C)nc(N(C)CN(C)c2ccc(Cl)cc2)n1,> 100 µM,> 100 µM (inactive),> 100 µM (inactive),> 100 µM (inactive),> 100 µM (inactive),> 100 µM (inactive),> 100 µM (inactive),> 100 µM (inactive),> 100 µM (inactive),> 100 µM (inactive),39 µM (inactive),> 100 µM (inactive),> 100 µM (inactive),> 100 µM (inactive),> 100 µM (inactive),> 100 µM (inactive),> 100 µM (inactive),> 100 µM (inactive),> 100 µM (inactive),> 100 µM (inactive)
Oc1ccc(-c2nc3ccc(Br)cc3s2)cc1,20.3 µM,21.7 µM (inactive),22.1 µM (inactive),3.74 µM (inactive),18.2 µM (inactive),23.3 µM (inactive),31.3 µM (inactive),20 µM (inactive),13.5 µM (inactive),10.7 µM (inactive),14.3 µM (inactive),20.4 µM (inactive),17.6 µM (inactive),19.5 µM (inactive),18.2 µM (inactive),16.3 µM (inactive),16.3 µM (inactive),17.9 µM (inactive),23.5 µM (inactive),20.4 µM (inactive)
